In patent publication US20060161001A1, “Substituted heterocyclic compounds and methods of use” (Amgen Inc., priority 2004, published 2006):

What follows are molecules tested on LPS induced TNF release (assay: THP1 cell assay (LPS induced TNF release)). Conditions: Homo sapiens, THP-1; THP1 cells, LPS induced TNF-α secretion, 3 h at 37° C.
Format: cell-based
Description: Lipopolysaccharide-Activated THP1 Cell TNF Production Assay
THP1 cells are resuspended in fresh THP1 media (RPMI 1640, 10% heat-inactivated FBS, 1XPGS, 1XNEAA, plus 30 μM OME) at a concentration of 1E6/mL. One hundred microliters of cells per well are plated in a polystyrene 96-well tissue culture. One microgram per mL of bacterial LPS is prepared in THP1 media and is transferred to the wells. Test compounds are dissolved in 100% DMSO and are serially diluted 3-fold in a polypropylene 96-well microtiter plate (drug plate). HI control and LO control wells contain only DMSO. One microliter of test compound from the drug plate followed by 10 μL of LPS are transferred to the cell plate. The treated cells are induced to synthesize and secrete TNF-α at 37° C. for 3 h. Forty microliters of conditioned media are transferred to a 96-well polypropylene plate containing 110 μL of ECL buffer (50 mM Tris-HCl pH 8.0, 100 mM NaCl, 0.05% Tween 20, 0.05% NaN3 and 1% FBS) supplemented with 0.44 nM MAB610 monoclonal Ab (R&D Systems), 0.34 nM ruthenylated AF210NA polyclonal Ab (R&D Systems) and 44 μg/mL sheep anti-mouse M280 Dynabeads (Dynal). After a 2 h incubation at RT with shaking, the reaction is read on the ECL M8 Instrument (IGEN Inc.). A low voltage is applied to the ruthenylated TNF-α immune complexes, which in the presence of TPA (the active component in Origlo), results in a cyclical redox reaction generating light at […]. The amount of secreted TNF-α in the presence of compound compared with that in the presence of DMSO vehicle alone (HI control) is calculated using the formula: % control (POC)=(cpd−average LO)/(average HI−average LO)*100. Data (consisting of POC and inhibitor concentration in μM) is fitted to a 4-parameter equation (y=A+((B−A)/(I+((x/C)ˆD))), where A is the minimum y (POC) value, B is the maximum y (POC), C is the x (cpd concentration) at the point of inflection and D is the slope factor) using a Levenburg-Marquardt non-linear regression algorithm.

Row | IC50 [µM] | Structure (SMILES)
1 | ≤ 20 | c1ccc(CCNc2nccc(N3CCCc4cnc(-c5ccccc5)cc43)n2)cc1 [Example 3, N-Phenethyl-4-(7-phenyl-3,4-dihydro-1,6-naphthyridin-1(2H)-yl)pyrimidin-2-amine]
2 | ≤ 20 | CC(Cc1cccc(CO)c1)Nc1nccc(N2CCCc3cnc(-c4ccccc4)cc32)n1 (stereo not shown) [Example 4, (3-(2-(4-(7-Phenyl-3,4-dihydro-1,6-naphthyridin-1(2H)-yl)pyrimidin-2-ylamino)-propyl)phenyl)methanol]
3 | ≤ 20 | CC(Cc1cccc(CN)c1)Nc1nccc(N2CCCc3cnc(-c4ccccc4)cc32)n1 (stereo not shown) [Example 5, N-(1-(3-(Aminomethyl)phenyl)propan-2-yl)-4-(7-phenyl-3,4-dihydro-1,6-naphthyridin-1(2H)-yl)pyrimidin-2-amine]
4 | ≤ 20 | CC(C)(C)OC(=O)N1CCC(Nc2nccc(N3CCCc4cnc(-c5ccccc5)cc43)n2)CC1 [Example 7, tert-Butyl 4-(4-(7-phenyl-3,4-dihydro-1,6-naphthyridin-1(2H)-yl)pyrimidin-2-ylamino)piperidine-1-carboxylate]
5 | ≤ 20 | c1ccc(-c2cc3c(cn2)CCCN3c2ccnc(NC3CCNCC3)n2)cc1 [Example 8, 4-(7-Phenyl-3,4-dihydro-1,6-naphthyridin-1(2H)-yl)-N-(piperidin-4-yl)pyrimidin-2-amine]
6 | ≤ 20 | CC(=O)N1CCC(Nc2nccc(N3CCCc4cnc(-c5ccccc5)cc43)n2)CC1 [Example 9, 1-(4-(4-(7-Phenyl-3,4-dihydro-1,6-naphthyridin-1(2H)-yl)pyrimidin-2-ylamino)-piperidin-1-yl)ethanone]
7 | ≤ 20 | C[C@@H](Cc1cccc([C@@H](C)N)c1)Nc1nccc(N2CCCc3cnc(-c4ccccc4)cc32)n1 [Example 10, N-((S)-1-(3-((R)-1-Aminoethyl)phenyl)propan-2-yl)-4-(7-phenyl-3,4-dihydro-1,6-naphthyridin-1(2H)-yl)pyrimidin-2-amine]
8 | ≤ 20 | CC(=O)c1cccc(C[C@H](C)Nc2nccc(N3CCCc4cnc(-c5ccccc5)cc43)n2)c1 [Example 12, (S)-1-(3-(2-(4-(7-Phenyl-3,4-dihydro-1,6-naphthyridin-1(2H)-yl)pyrimidin-2-yl-amino)propyl)phenyl)ethanone]
9 | ≤ 20 | NCC(=O)N1CCC(Nc2nccc(N3CCCc4cnc(-c5ccccc5)cc43)n2)CC1 [Example 13, 2-Amino-1-(4(4-(7-phenyl-3,4-dihydro-1,6-naphthyridin-1(2H)-yl)pyrimidin-2-yl-amino)piperdin-1-yl)ethanone]
10 | ≤ 20 | CC(C)NCCC(=O)N1CCC(Nc2nccc(N3CCCc4cnc(-c5ccccc5)cc43)n2)CC1 [Example 14, 3-(Isopropylamino)-1-(4(4-(7-phenyl-3,4-dihydro-1,6-naphthyridin-1(2H)-yl)pyrimidin-2-ylamino)piperdin-1-yl)propan-1-one]
11 | ≤ 20 | CNCCC(=O)N1CCC(Nc2nccc(N3CCCc4cnc(-c5ccccc5)cc43)n2)CC1 [Example 15, 3-(Methylamino)-1-(4(4-(7-phenyl-3,4-dihydro-1,6-naphthyridin-1(2H)-yl)-pyrimidin-2-ylamino)piperdin-1-yl)propan-1-one]
12 | ≤ 20 | CCNCCC(=O)N1CCC(Nc2nccc(N3CCCc4cnc(-c5ccccc5)cc43)n2)CC1 [Example 16, 3-(Ethylamino)-1-(4(4-(7-phenyl-3,4-dihydro-1,6-naphthyridin-1(2H)-yl)pyrimidin-2-ylamino)piperdin-1-yl)propan-1-one]
13 | ≤ 20 | COC(=O)[C@@H](Cc1ccccc1)Nc1nccc(N2CCCc3cnc(-c4ccccc4)cc32)n1 [Example 17, (R)-Methyl-3-phenyl-2-(4-(7-phenyl-3,4-dihydro-1,6-naphthyridin-1(2H)-yl)-pyrimidin-2-ylamino)propanoate]
14 | ≤ 20 | O=C(O)[C@@H](Cc1ccccc1)Nc1nccc(N2CCCc3cnc(-c4ccccc4)cc32)n1 [Example 18, (R)-3-Phenyl-2-(4-(7-phenyl-3,4-dihydro-1,6-naphthyridin-1(2H)-yl)pyrimidin-2-ylamino)propanoic acid]
15 | ≤ 20 | O=C(O)C[C@@H](Cc1ccccc1)Nc1nccc(N2CCCc3cnc(-c4ccccc4)cc32)n1 [Example 19, (R)-4-Phenyl-3-(4-(7-phenyl-3,4-dihydro-1,6-naphthyridin-1(2H)-yl)pyrimidin-2-ylamino)butanoic acid]
16 | ≤ 20 | O=C(C[C@@H](Cc1ccccc1)Nc1nccc(N2CCCc3cnc(-c4ccccc4)cc32)n1)N1CCOCC1 [Example 20, (R)-1-Morpholino-4-phenyl-3-(4-(7-phenyl-3,4-dihydro-1,6-naphthyridin-1(2H)-yl)pyrimidin-2-ylamino)butan-1-one]

Row | IC50 [µM] | Structure (SMILES)
17 | ≤ 20 | O=C(C[C@@H](Cc1ccccc1)Nc1nccc(N2CCCc3cnc(-c4ccccc4)cc32)n1)NC1CC1 [Example 21, (R)-N-Cyclopropyl-4-phenyl-3-(4-(7-phenyl-3,4-dihydro-1,6-naphthyridin-1(2H)-yl)pyrimidin-2-ylamino)butanamide]
18 | ≤ 20 | O=C(C[C@@H](Cc1ccccc1)Nc1nccc(N2CCCc3cnc(-c4ccccc4)cc32)n1)N1CCNCC1 [Example 22, (R)-4-Phenyl-3-(4-(7-phenyl-3,4-dihydro-1,6-naphthyridin-1(2H)-yl)pyrimidin-2-ylamino)-1-(piperazin-1yl)butan-1-one]
19 | ≤ 20 | CC(C)(C)OC(=O)N1CCC(Nc2ncc(F)c(N3CCCc4cnc(-c5ccccc5)cc43)n2)CC1 [Example 24]
20 | ≤ 20 | Fc1cnc(NC2CCNCC2)nc1N1CCCc2cnc(-c3ccccc3)cc21 [Example 25, 5-Fluoro-4-(7-phenyl-3,4-dihydro-1,6-naphthyridin-1(2H)-yl)-N-(piperidin-4-yl)pyrimidin-2-amine]
21 | ≤ 20 | CC(=O)N1CCC(Nc2ncc(F)c(N3CCCc4cnc(-c5ccccc5)cc43)n2)CC1 [Example 26, 1-(4-(5-Fluoro-4-(7-phenyl-3,4-dihydro-1,6-naphthyridin-1(2H)-yl)pyrimidin-2-yl-amino)piperidin-1-yl)ethanone]
22 | ≤ 20 | C[C@@H](Cc1cccc(C(C)(C)N)c1)Nc1nccc(N2CCCc3ncc(-c4ccccc4)cc32)n1 [Example 29, (S)-N-(1-(3-(2-Aminopropan-2-yl)phenyl)propan-2-yl)-4-(7-phenyl-3,4-dihydro-1,5-naphthyridin-1(2H)-yl)pyrimidin-2-amine]
23 | ≤ 20 | CC(C)(C)OC(=O)N1CCC(Nc2nccc(N3CCCc4ncc(-c5ccccc5)cc43)n2)CC1 [Example 30, tert-Butyl-4(7-phenyl-3,4-dihydro-1,5-naphthylridin-1(2H)-pyrimidin-2-ylamino)-piperidine-1-carboxylate]
24 | ≤ 20 | c1ccc(-c2cnc3c(c2)N(c2ccnc(NC4CCNCC4)n2)CCC3)cc1 [Example 31, 4-(7-Phenyl-3,4-dihydro-1,5-naphthyridin-1(2H)-yl)-N-(piperidin-4-yl)pyrimidin-2-amine]
25 | ≤ 20 | CC(=O)N1CCC(Nc2nccc(N3CCCc4ncc(-c5ccccc5)cc43)n2)CC1 [Example 32, 1-(4-(4-(7-Phenyl-3,4-dihydro-1,5-naphthyridin-1(2H)-yl)pyrimidin-2-ylamino)-piperidin-1-yl)ethanone]
26 | ≤ 20 | NC(=O)[C@@H](Cc1ccccc1)Nc1nccc(N2CCCc3cnc(-c4ccccc4)cc32)n1 [Example 33, (R)-3-Phenyl-2-(4-(7-phenyl-3,4-dihydro-1,6-naphthyridin-1(2H)-yl)pyrimidin-2-ylamino)propanamide]
27 | ≤ 20 | NC1CCC(Nc2nccc(N3CCCc4cnc(-c5ccccc5)cc43)n2)CC1 [Example 34, (1R,4R)-N^1-(4-(7-Phenyl-3,4-dihydro-1,6-naphthyridin-1(2H)-yl)pyrimidin-2-yl)cyclohexane-1,4-diamine]
28 | ≤ 20 | CC(=O)NC1CCC(Nc2nccc(N3CCCc4cnc(-c5ccccc5)cc43)n2)CC1 [Example 35, N-((1R,4R)-4-(4-(7-Phenyl-3,4-dihydro-1,6-naphthyridin-1(2H)-yl)pyrimidin-2-ylamino)cyclohexyl)acetamide]
29 | ≤ 20 | O=C(CC(F)(F)F)NC1CCC(Nc2nccc(N3CCCc4cnc(-c5ccccc5)cc43)n2)CC1 [Example 36, 3,3,3-Trifluoro-N-((1R,4R)-4-(4-(7-phenyl-3,4-dihydro-1,6-naphthyridin-1(2H)-yl)-pyrimidin-2-ylamino)cyclohexyl)propanamide]
30 | ≤ 20 | CC(C)NC1CCC(Nc2nccc(N3CCCc4cnc(-c5ccccc5)cc43)n2)CC1 [Example 37, (1R,4R)-N^1-Isopropyl-N^4-(4-(7-phenyl-3,4-dihydro-1,6-naphthyridin-1(2H)-yl)-pyrimidin-2-yl)cyclohexane-1,4-diamine]
31 | ≤ 20 | C[C@@H](Cc1cccc(CN)c1)Nc1nccc(N2CCCc3cnc(-c4ccccc4)cc32)n1 [Example 38]
